Results taken from patent US20260325485A1, “COMPOSITIONS AND METHODS FOR TREATING PANCREATITIS” (The United States Government as represented by the …, priority 2022, published 2026).
Entries after “also recorded” stand apart in the source; their conditions may differ. Residues, ends and D or L forms follow the SMILES beside them. No end group written: not given here.

Key:
[1] = test system: pancreas; test: Pancreatic total cholesterol and lipids in acute pancreatitis models in WT mice; format: in vivo, mouse
Experimental: (§1) FIGS. 8A-8M show derangement of cholesterol metabolism in experimental pancreatitis. Characteristics of cholesterol metabolism were measured, as detailed in FIGS. 4A-4R, in pancreas of WT mice subjected to pancreatitis induced with cerulein (CER-AP), L-arginine (Arg-AP), or CDE diet (CDE-AP) (A, B, and E-G); ex vivo pancreatitis induced in WT mouse (C and I-M) or human acinar cells (D) with 100 nM CCK (CCK-AP) or 1 mM carbachol; and isolated pancreatic mitochondria (H). (B) Cholesterol ester (CE) heatmap; each column represents an individual mouse. (F) IB analysis of the indicated proteins. (G) LAL activity was measured by a fluorogenic assay (n=6 mice per condition). (H) Cholesterol content was measured by enzymatic assay. (I-M) Filipin colocalization with indicated proteins was quantified as detailed in FIGS. 2A-2L. Each symbol in A, C-E, and H represents an individual mouse, or cell or mitochondria preparation (n=3-15 per condition). Each symbol in J, K, and M corresponds to 20-30 cells in a different field (n=10-20 fields from 3 cell preparations per condition). Values are mean±SEM. *P<0.05, **P<0.01, ***P<0.001 vs. the same parameter in control/untreated pancreas, acinar cells or isolated mitochondria. Significance was determined by 2-tailed Student's t test (B, E, H, J, K, and M) or 1-way ANOVA followed by Tukey's multiple comparison test (A, C, and D). Scale bars: 10 μm.
Parameters of cholesterol metabolism were measured in (A, B, E, F) pancreas of mice subjected to pancreatitis induced with cerulean (CER-AP), L-arginine (Arg-AP), or combination of EtOH+palmitoleic acid (EtOH+POA); and (C) ex-vivo models on mouse and human acinar cells treated for 1 h with 100 nM CCK, […] or 500 μM TLCS. […] (B, C) Total cholesterol content was measured with cholesterol assay kit (Abcam, ab65390). […] Signficance was determined by 2-tailed student's t test. […]
(§2) Total cholesterol content was measured with Cholesterol Assay kit per manufacturer's instructions. […]
Triglycerides (TAG) content was measured using Triglyceride Assay kit. […]

[2] = test system: pancreas; test: Pancreatic mRNA expression and protein levels (qPCR, IB) in cerulein pancreatitis; format: in vivo, mouse
Experimental: as §1
FIGS. 9A-9E show cerulein pancreatitis decreases pancreatic levels of GNPTAB and mediators of cholesterol trafficking through LE/Ly. (A, D, and E) IB analysis of the indicated proteins in pancreas of WT mice subjected to CER-AP and in Gnptab^−/− mice. NS, nonspecific band. (B and C) Cholesterol content was measured in pancreas of (B) WT mice that received daily i.p. injections of the NPC1 inhibitor U18666A (10 mg/kg) or vehicle for 15 days and (C) Lamp2^−/− mice. Each symbol in B, C, and E represents an individual mouse. Values are mean±SEM from 3 to 5 mice per condition. ***P<0.001 vs. the same parameter in WT control/untreated or saline-treated mice. Significance was determined by 2-tailed Student's t test (B and C) or 1-way ANOVA followed by Tukey's multiple comparison test (E).
(§3) Cerulein-induced (CER-AP) and L-arginine induced (Arg-AP) acute pancreatitis models were performed in 12-week-old C57BL/6 mice that received 7 hourly i.p. injections of 50 μg/kg cerulein or 3 hourly i.p. injections of 3.3 g/kg Arg; controls received physiologic saline injections. Mice were euthanized for analyses 7 hours after the first cerulein or 24 hours after the first Arg injection. Choline deficient, ethionine-supplemented (CDE) pancreatitis was induced in young (~5-weeks old) female mice fed either CDE or control diet. Mice were euthanized 72 hours after the diet initiation. These models have been described in detail (1-7).
Immunoblots were developed using enhanced chemiluminescence detection kit (Pierce), and band intensities were quantified by densitometry using FluorChem HD2 imaging system (Alpha Innotech/ProteinSimple).
qPCR. Total RNA was isolated from tissue or cells using QIAGEN RNeasy Plus kit according to the manufacturer's instructions, quantified in NanoDrop, and converted to cDNA with high-capacity cDNA reverse transcription kit. KAPA SYBR FAST qPCR Master Mix kit and a LightCycler 480 were used for quantitative PCR. Fold change related to the control group was calculated using the 2ΔΔCt method with Rplp0/36B4 as the reference gene. Primers are available upon request.

[3] = test system: lysosomal acid lipase (LAL); test: Lysosomal acid lipase (LAL) activity in cerulein pancreatitis; format: in vivo, mouse; conditions: WT mice with CER-AP
Experimental: as §1, with “Each symbol in A, C-E, and H represents an individual mouse, or cell or mitochondria preparation (n=3-15 per condition). Each symbol in J, K, and M corresponds to 20-30 cells in a different field (n=10-20 fields from 3 cell preparations per condition). Values are mean±SEM. *P<0.05, **P<0.01, ***P<0.001 vs. the same parameter in control/untreated pancreas, acinar cells or isolated mitochondria.” left out, “Scale bars: 10 μm.” left out
Activities of cathepsin (Cat) B and L, caspase-3, trypsin, and lysosomal acid lipase (LAL) were measured in pancreatic tissue or cell homogenates and subcellular fractions with fluorogenic assays using substrates specific for CatB (Z-Arg-Arg-AMC), CatL (Z-Phe-Arg-AMC), caspase-3-like ([…]), trypsin (Boc-Gln-Ala-Arg-AMC), as previously described (1-4, 6, 7); and for LAL (4-methylumbelliferyl oleate), as in (17). […]

[4] = test system: pancreatic mitochondria; test: Cholesterol content of isolated pancreatic mitochondria in cerulein pancreatitis; format: in vivo, mouse; conditions: WT mice with CER-AP
Experimental: as §1, with “Each symbol in A, C-E, and H represents an individual mouse, or cell or mitochondria preparation (n=3-15 per condition). Each symbol in J, K, and M corresponds to 20-30 cells in a different field (n=10-20 fields from 3 cell preparations per condition). Values are mean±SEM. *P<0.05, **P<0.01, ***P<0.001 vs. the same parameter in control/untreated pancreas, acinar cells or isolated mitochondria.” left out, “Scale bars: 10 μm.” left out
Mitochondria were isolated from mouse pancreas and liver in a Ca2+-free medium in the presence of 1 mM EGTA, as in (3-5,13). The value of respiratory control ratio in these preparations, measured in the presence of succinate (quality control parameter), was greater than 3.0.
as §2

[5] = Serum cholesterol in cerulein pancreatitis; format: in vivo, mouse; conditions: CER-AP
Experimental: as §3
(§4) Total cholesterol content was measured with Cholesterol Assay kit per manufacturer's instructions. Samples of mouse pancreas and liver, cell pellet homogenates, subcellular fractions, isolated mitochondria, and serum were diluted in the reaction buffer containing cholesterol probe and incubated at 37° C. for 1 h in the dark. To measure total cholesterol, the samples were subjected to digestion with cholesterol esterase. To measure non-esterified cholesterol, the esterase was omitted from the assay.

[6] = test system: mouse acinar cells; test: Total cholesterol content of mouse acinar cells (ex vivo pancreatitis models or cholesterol chelator); format: cell-based; set-up: total cholesterol in acinar cells, physiologic doses: dose or concentration left out as unconfirmed
Experimental: as §1
(§5) Parameters of cholesterol metabolism were measured in (A, B, E, F) pancreas of mice subjected to pancreatitis induced with cerulean (CER-AP), L-arginine (Arg-AP), or combination of EtOH+palmitoleic acid (EtOH+POA); and (C) ex-vivo models on mouse and human acinar cells treated for 1 h with 100 nM CCK, […] or 500 μM TLCS. In (A), each column in CE heatmap represents an individual mouse. (B, C) Total cholesterol content was measured with cholesterol assay kit (Abcam, ab65390). […] Each symbol corresponds to 20-30 cells in each of 8 high-expression (qPCR) of proteins regulating cholesterol synthesis (4 mice/group). (B-D) Each symbol represents an individual animal or cell preparation. (A-D, F) Values are mean±SE (*p<0.05, **p<0.01, ***p<0.001 vs saline or control). Signficance was determined by 2-tailed student's t test.
(§6) Ex vivo pancreatitis models were performed on mouse and human acinar cells, and human pancreas slices by incubation with supramaximal CCK (100 nM) or carbachol (1 mM), as described previously (80, 81).
as §4
Fluorescence intensity (for cholesterol) and absorbance (for TAG) were measured in a Tecan microplate reader. Each measurement was in duplicate, and the values were normalized per mg total protein in the sample.

[7] = test system: human acinar cells; test: Total cholesterol content of human acinar cells (ex vivo pancreatitis models); format: cell-based
Experimental: as §1, §5, §6
Human pancreas slices were obtained as in (12), from portions of live normal human pancreata from pre-terminal donors that were not used for transplantation and diverted to research (provided by Trillium Gift of Life Network, Toronto, Ontario, year 2020) or from normal portions of pancreatic cancer operations. Pancreas was cut into ~3×3×3 mm pieces and embedded with 37° C. low melting 3.8% agarose gel in extracellular solution containing (mM): 125 NaCl, 2.5 KCl, 1 MgCl2, 2 CaCl2, 1.25 NaH2PO4, 26 NaHCO3, 2 sodium pyruvate, 0.25 ascorbic acid, 3 myo-inositol, 6 lactic acid, and 7 glucose, and placed on ice to solidify the gel. The gelled tissue blocks were sliced with Vibratome into 120 μm-thick slices; slices were washed with the same extracellular solution, placed in 199 medium containing 0.1 mg/mL soybean trypsin inhibitor, and treated with CCK-8 (CCK) or carbachol for ex-vivo pancreatitis.
as §2

[8] = test system: free cholesterol; test: Filipin colocalization with organelle markers in ex vivo CCK-AP; format: cell-based, mouse; conditions: 100 nM CCK
Experimental: as §1, with “Each symbol in A, C-E, and H represents an individual mouse, or cell or mitochondria preparation (n=3-15 per condition). Each symbol in J, K, and M corresponds to 20-30 cells in a different field (n=10-20 fields from 3 cell preparations per condition). Values are mean±SEM. *P<0.05, **P<0.01, ***P<0.001 vs. the same parameter in control/untreated pancreas, acinar cells or isolated mitochondria.” left out, “Scale bars: 10 μm.” left out
All fluorescence images were acquired with a Zeiss LSM710 confocal microscope using x63 objective and preset within-experiment image acquisition settings. Quantitative fluorescence analysis was performed with Volocity software (PerkinElmer). Overlap between 2 fluorescent labels was measured using Manders-Costes coefficient. […]

[9] = ex-vivo pancreatitis, 1 h, 100 nM CCK, 1 mM carbachol or 500 μM TLCS
[10] = supramaximal (100 nM) CCK-8 or carbachol, ex vivo AP

## CSCC[C@H](NC(=O)[C@H](Cc1c[nH]c2ccccc12)NC(=O)CNC(=O)[C@@H](NC(=O)[C@H](Cc1ccc(OS(=O)(=O)O)cc1)NC(=O)[C@H](CC(=O)O)NC(=O)[C@H](CCC(N)=O)NC(=O)[C@@H]1CCC(=O)N1)[C@@H](C)O)C(=O)N[C@@H](CC(=O)O)C(=O)N[C@@H](Cc1ccccc1)C(N)=O [cerulein] (HELM PEPTIDE1{[Glp].Q.D.[O=C([C@H](Cc1ccc(OS(=O)(=O)O)cc1)N[*:1])[*:2]].T.G.W.M.D.F.[am]}$$$$V2.0)
[1]; Arg-AP, CER-AP or CDE-AP
  pancreatic total cholesterol, AP models: increases
[1]; CER-AP
  pancreatic triglycerides in CER-AP: unchanged
[2]; CER-AP
  decrease in pancreatic GNPTAB α-subunit protein level: approximately 5 fold
  pancreatic LAMP2 levels: greatly decrease
[2]; WT mice with CER-AP
  LDLR protein level: increased
  SREBP2 protein level: increased
  pancreatic NPC1: greatly decreased
  pancreatic mRNA expression for enzymes mediating cholesterol synthesis: upregulation
[2]; WT mice with CER-AP, listed as CER
  NPC2 levels: no change; also recorded: not reduced
[3]
  LAL activity: increased
[4]
  mitochondrial cholesterol: elevated
[5]
  serum cholesterol levels: did not change

## CCK: hormone cholecystokinin-8 (CCK) (DYMGWMDF; ends and bridges not checked; UniProt P06307 96-103, looked up)
[6]; [9]
  cholesterol overload, mouse acinar cells: prominent
[6]; physiologic doses of CCK or carbachol
  total cholesterol in acinar cells, physiologic doses: did not alter
[6]; [10]
  cholesterol content, mouse acinar cells, supramaximal stimulation: increased
[7]; [9]
  cholesterol overload, human acinar cells: prominent
[7]; [10]
  cholesterol content, human acinar cells, supramaximal stimulation: increased
[8]
  free cholesterol in Rab7-positive LE/Ly: accumulation
  plasma membrane free cholesterol (filipin colocalization with cadherin): markedly decreased
